Laboratory results as given in US10301261B2, “Substituted indoles as modulators of ROR-gamma” (Vitae Pharmaceuticals, LLC, priority 2015, dated 2019).

What was measured:
[1] = target: full-length RORγt in Jurkat cells (Homo sapiens (Human), UniProt P51449); experiment: RORγt 5×RORE Assay in Jurkat Cells (Assay 2); format: cell-based; conditions: RORγt 5×RORE Nanoluc reporter
Description: [formula] RORγt 5×RORE Assay in Jurkat Cells (Assay 2)
Compounds described herein were tested for RORγ inverse agonist activity in a cell-based, transcriptional activity assay. […] (Promega, Cat. # N1021) using KpnI and HindIII restriction sites. […] Tested compounds were added to the cells in the same media (final concentration of DMSO was 0.1% (v/v)), and the plates were incubated at 37° C./5% CO2 for 16-18 hrs. Luciferase activity in the conditioned supernatants was determined with NanoGlo® assay reagents (Promega, Cat.# N1130).

[2] = target: recombinant RORγ Ligand Binding Domain (LBD) protein (Homo sapiens (Human), UniProt P51449); experiment: Radio-Ligand RORγ Binding Assay (Assay 1); conditions: radio-ligand 25-hydroxy [26,27-3H]-cholesterol competition
Description: Radio-Ligand RORγ Binding Assay (Assay 1)
Compounds described herein were tested for ability to bind to RORγ in a cell-free competition assay with commercially available radio-ligand (RL), 25-hydroxy [26,27-^3H]-cholesterol (PerkinElmer, Cat. # NET674250UC), for a ligand binding site on a recombinant RORγ Ligand Binding Domain (LBD) protein expressed as a 6×His-Glutathione-S-Transferase (GST) fusion. […] The plate was shaken at 700 rpm for 20 min and incubated for 10 min at rt, after which 40 μL of poly-Lys YSi SPA beads (PerkinElmer, Cat. # RPNQ0010) were added to achieve 50 μg of the beads per well. The plate was incubated on an orbital shaker for 20 min and then for 10 min without agitation at rt. SPA signal for tritium beta radiation was registered on PerkinElmer Microbeta plate reader. […] The percent inhibition vs. concentration data were fit into a four-parameter model, and IC50 values were calculated from the fit as the concentrations corresponding to the inflection points on the dose-response curves. […]

Sequence of full-length RORγt in Jurkat cells (P51449 other isoform, or with tags, fused parts or gaps): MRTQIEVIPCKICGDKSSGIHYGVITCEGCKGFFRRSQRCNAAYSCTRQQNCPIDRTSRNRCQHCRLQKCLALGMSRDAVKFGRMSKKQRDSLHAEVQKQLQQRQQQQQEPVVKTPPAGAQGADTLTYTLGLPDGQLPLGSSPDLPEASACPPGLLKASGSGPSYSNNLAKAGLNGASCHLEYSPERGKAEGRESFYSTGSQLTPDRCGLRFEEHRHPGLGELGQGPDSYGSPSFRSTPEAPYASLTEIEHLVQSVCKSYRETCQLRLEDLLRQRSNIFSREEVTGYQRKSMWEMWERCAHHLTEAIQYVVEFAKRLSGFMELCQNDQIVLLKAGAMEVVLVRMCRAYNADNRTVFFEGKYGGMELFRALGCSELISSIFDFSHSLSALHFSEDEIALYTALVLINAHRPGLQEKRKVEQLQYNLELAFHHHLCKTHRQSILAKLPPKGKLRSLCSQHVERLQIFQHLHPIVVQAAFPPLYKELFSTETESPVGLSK
Sequence of recombinant RORγ Ligand Binding Domain (LBD) protein (P51449 269-508): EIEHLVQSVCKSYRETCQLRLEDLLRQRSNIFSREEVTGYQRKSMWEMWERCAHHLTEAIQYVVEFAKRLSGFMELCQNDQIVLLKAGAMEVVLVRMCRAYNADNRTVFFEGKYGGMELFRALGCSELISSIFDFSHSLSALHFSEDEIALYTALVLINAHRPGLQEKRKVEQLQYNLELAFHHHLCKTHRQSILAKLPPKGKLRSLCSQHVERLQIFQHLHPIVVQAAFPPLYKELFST

Compound | IC50 [1] | Ki [2]
CCS(=O)(=O)c1ccc(CNC(=O)c2cnc3c(c2)nc(Cc2ccc(C(F)(F)F)cc2)n3C2CC2)cc1 [AB-3, 3-cyclopropyl-N-(4-(ethylsulfonyl)benzyl)-2-(4-(trifluoromethyl)benzyl)-3H-imidazo[4,5-b]pyridine-6-carboxamide] | < 100 nM | < 100 nM
CCS(=O)(=O)c1ccc(CNC(=O)c2cnc3c(c2)cc(C[C@H]2CC[C@H](C(F)(F)F)CC2)n3C2CC2)cc1 [AI-1, 1-cyclopropyl-N-(4-(ethylsulfonyl)benzyl)-2-(((1r,4r)-4-(trifluoromethyl)cyclohexyl)methyl)-1H-pyrrolo[2,3-b]pyridine-5-carboxamide] | < 100 nM | < 100 nM
CCS(=O)(=O)c1ccc([C@H](CO)NC(=O)c2ccc3c(c2)nc(O[C@H]2CC[C@H](C(F)(F)F)CC2)n3C2CC2)cc1 [BE-1, 1-cyclopropyl-N-((R)-1-(4-(ethylsulfonyl)phenyl)-2-hydroxyethyl)-2-(((1r,4R)-4-(trifluoromethyl)cyclohexyl)oxy)-1H-benzo[d]imidazole-5-carboxamide] | < 100 nM | < 100 nM
CCn1c(O[C@H]2CC[C@H](C(F)(F)F)CC2)nc2cc(C(=O)NCc3ccc(S(=O)(=O)CC)cc3)ccc21 [BE-2, 1-ethyl-N-(4-(ethylsulfonyl)benzyl)-2-(((1r,4r)-4-(trifluoromethyl)cyclohexyl)oxy)-1H-benzo[d]imidazole-5-carboxamide] | < 100 nM | < 100 nM
CCS(=O)(=O)c1ccc(CNC(=O)c2ccc3c(c2)nc(O[C@H]2CC[C@H](C(F)(F)F)CC2)n3CC(C)C)cc1 [BE-4.1, N-(4-(ethylsulfonyl)benzyl)-1-isobutyl-2-(((1r,4r)-4-(trifluoromethyl)cyclohexyl)oxy)-1H-benzo[d]imidazole-5-carboxamide] | 100 to 1000 nM | < 100 nM
CCS(=O)(=O)c1ccc(CNC(=O)c2ccc3c(c2)nc(O[C@H]2CC[C@@H](C(F)(F)F)CC2)n3CC(C)C)cc1 [BE-4.2, N-(4-(ethylsulfonyl)benzyl)-1-isobutyl-2-(((1s,4s)-4-(trifluoromethyl)cyclohexyl)oxy)-1H-benzo[d]imidazole-5-carboxamide] | > 1000 nM | < 100 nM
CCn1c(Oc2ccc(C(F)(F)F)cc2)nc2cc(C(=O)NCc3ccc(S(=O)(=O)CC)cc3)ccc21 [BE-5, 1-ethyl-N-(4-(ethylsulfonyl)benzyl)-2-(4-(trifluoromethyl)phenoxy)-1H-benzo[d]imidazole-5-carboxamide] | < 100 nM | < 100 nM
CCS(=O)(=O)c1ccc(CNC(=O)c2ccc3c(c2)nc(Oc2ccc(C(F)(F)F)cc2)n3C2CC2)cc1 [BE-6, 1-cyclopropyl-N-(4-(ethylsulfonyl)benzyl)-2-(4-(trifluoromethyl)phenoxy)-1H-benzo[d]imidazole-5-carboxamide] | < 100 nM | < 100 nM
CCS(=O)(=O)c1ccc([C@H](CO)NC(=O)c2ccc3c(c2)nc(Oc2ccc(C(F)(F)F)cc2)n3C2CC2)cc1 [BE-7, (R)-1-cyclopropyl-N-(1-(4-(ethylsulfonyl)phenyl)-2-hydroxyethyl)-2-(4-(trifluoromethyl)phenoxy)-1H-benzo[d]imidazole-5-carboxamide] | < 100 nM | < 100 nM
CCn1c(Oc2ccc(C(F)(F)F)cc2)nc2cc(C(=O)N[C@@H](CO)c3ccc(S(=O)(=O)CC)cc3)ccc21 [BE-8, (R)-1-ethyl-N-(1-(4-(ethylsulfonyl)phenyl)-2-hydroxyethyl)-2-(4-(trifluoromethyl)phenoxy)-1H-benzo[d]imidazole-5-carboxamide] | < 100 nM | < 100 nM
CCn1c(Oc2ccc(OC(F)(F)F)cc2)nc2cc(C(=O)N[C@@H](CO)c3ccc(S(=O)(=O)CC)cc3)ccc21 [BE-9, (R)-1-ethyl-N-(1-(4-(ethylsulfonyl)phenyl)-2-hydroxyethyl)-2-(4-(trifluoromethoxy)phenoxy)-1H-benzo[d]imidazole-5-carboxamide] | < 100 nM | < 100 nM
CCn1c(Oc2ccc(C(F)(F)F)cc2)nc2cc(C(=O)N[C@@H](CN)c3ccc(S(=O)(=O)CC)cc3)ccc21 [BE-11, (R)-N-(2-amino-1-(4-(ethylsulfonyl)phenyl)ethyl)-1-ethyl-2-(4-(trifluoromethyl)phenoxy)-1H-benzo[d]imidazole-5-carboxamide] | < 100 nM | < 100 nM
CCn1c(OCC2CCC(F)(F)CC2)nc2cc(C(=O)N[C@@H](CO)c3ccc(S(=O)(=O)CC)cc3)ccc21 [BE-12, (R)-2-((4,4-difluorocyclohexyl)methoxy)-1-ethyl-N-(1-(4-(ethylsulfonyl)phenyl)-2-hydroxyethyl)-1H-benzo[d]imidazole-5-carboxamide] | > 1000 nM | < 100 nM
CCn1c(OCC2CC(F)(F)C2)nc2cc(C(=O)N[C@@H](CO)c3ccc(S(=O)(=O)CC)cc3)ccc21 [BE-13, (R)-2-((3,3-difluorocyclobutyl)methoxy)-1-ethyl-N-(1-(4-(ethylsulfonyl)phenyl)-2-hydroxyethyl)-1H-benzo[d]imidazole-5-carboxamide] | > 1000 nM | < 100 nM
CCn1c(OCc2ccc(C(F)(F)F)cc2)nc2cc(C(=O)N[C@@H](CO)c3ccc(S(=O)(=O)CC)cc3)ccc21 [BE-14, (R)-1-ethyl-N-(1-(4-(ethylsulfonyl)phenyl)-2-hydroxyethyl)-2-((4-(trifluoromethyl)benzyl)oxy)-1H-benzo[d]imidazole-5-carboxamide] | < 100 nM | < 100 nM
CCS(=O)(=O)c1ccc([C@H](CO)NC(=O)c2ccc3c(c2)nc(OCc2ccc(C(F)(F)F)cc2)n3C2CC2)cc1 [BE-15, (R)-1-cyclopropyl-N-(1-(4-(ethylsulfonyl)phenyl)-2-hydroxyethyl)-2-((4-(trifluoromethyl)benzyl)oxy)-1H-benzo[d]imidazole-5-carboxamide] | < 100 nM | < 100 nM
CCS(=O)(=O)c1ccc([C@H](CO)NC(=O)c2ccc3c(c2)nc(OCC2CCC(F)(F)CC2)n3C2CC2)cc1 [BE-16, (R)-1-cyclopropyl-2-((4,4-difluorocyclohexyl)methoxy)-N-(1-(4-(ethylsulfonyl)phenyl)-2-hydroxyethyl)-1H-benzo[d]imidazole-5-carboxamide] | < 100 nM | < 100 nM
CCn1c(OCC2CC2)nc2cc(C(=O)N[C@@H](CO)c3ccc(S(=O)(=O)CC)cc3)ccc21 [BE-17, (R)-2-(cyclopropylmethoxy)-1-ethyl-N-(1-(4-(ethylsulfonyl)phenyl)-2-hydroxyethyl)-1H-benzo[d]imidazole-5-carboxamide] | > 1000 nM | < 100 nM
CCS(=O)(=O)c1ccc(CNC(=O)c2ccc3c(c2)nc(C[C@H]2CC[C@H](C(F)(F)F)CC2)n3C2CC2)cc1 [BE-18.1, 1-cyclopropyl-N-(4-(ethylsulfonyl)benzyl)-2-((trans-4-(trifluoromethyl)cyclohexyl)methyl)-1H-benzo[d]imidazole-5-carboxamide] | < 100 nM | < 100 nM
CCS(=O)(=O)c1ccc(CNC(=O)c2ccc3c(c2)nc(C[C@H]2CC[C@@H](C(F)(F)F)CC2)n3C2CC2)cc1 [BE-18.2, 1-cyclopropyl-N-(4-(ethylsulfonyl)benzyl)-2-((cis-4-(trifluoromethyl)cyclohexyl)methyl)-1H-benzo[d]imidazole-5-carboxamide] | > 1000 nM | < 100 nM
CCS(=O)(=O)c1ccc(CNC(=O)c2ccc3c(c2)nc(C[C@H]2CC[C@H](C(F)(F)F)CC2)n3CC(C)C)cc1 [BE-19.1, N-(4-(ethylsulfonyl)benzyl)-1-isobutyl-2-(((1r,4r)-4-(trifluoromethyl)cyclohexyl)methyl)-1H-benzo[d]imidazole-5-carboxamide] | < 100 nM | < 100 nM
CCS(=O)(=O)c1ccc(CNC(=O)c2ccc3c(c2)nc(C[C@H]2CC[C@@H](C(F)(F)F)CC2)n3CC(C)C)cc1 [BE-19.2, N-(4-(ethylsulfonyl)benzyl)-1-isobutyl-2-(((1s,4s)-4-(trifluoromethyl)cyclohexyl)methyl)-1H-benzo[d]imidazole-5-carboxamide] | > 1000 nM | < 100 nM
CCn1c(C[C@H]2CC[C@H](C(F)(F)F)CC2)nc2cc(C(=O)NCc3ccc(S(=O)(=O)CC)cc3)ccc21 [BE-20, 1-ethyl-N-(4-(ethylsulfonyl)benzyl)-2-(((1r,4r)-4-(trifluoromethyl)cyclohexyl)methyl)-1H-benzo[d]imidazole-5-carboxamide] | < 100 nM | < 100 nM
CCS(=O)(=O)c1ccc([C@H](CCO)NC(=O)c2ccc3c(c2)nc(C[C@H]2CC[C@H](C(F)(F)F)CC2)n3C2CC2)cc1 [BE-25, 1-cyclopropyl-N-((S)-1-(4-(ethylsulfonyl)phenyl)-3-hydroxypropyl)-2-(((1r,4S)-4-(trifluoromethyl)cyclohexyl)methyl)-1H-benzo[d]imidazole-5-carboxamide] | < 100 nM | < 100 nM
